Values of other authors in US20190125940A1, “STENTS FOR THE RELEASE OF ACTIVE PRINCIPLES” (CID S.p.A., priority 2016, published 2019).

Conditions: related to complete in vitro release at 30 hours; Eurointervention 2012; 7:1087-1094

- in vivo release after coronary implantation: greater than 30 days
Structure (SMILES): CO[C@H]1C[C@@H]2CC[C@@H](C)[C@@](O)(O2)C(=O)C(=O)N2CCCC[C@H]2C(=O)O[C@H]([C@H](C)C[C@@H]2CC[C@@H](O)[C@H](OC)C2)CC(=O)[C@H](C)/C=C(\C)[C@@H](O)[C@@H](OC)C(=O)[C@H](C)C[C@H](C)/C=C/C=C/C=C/1C [Sirolimus]
